Molecules are shown by their SMILES.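 Where inhibition never reached the appropriate level, the endpoint shown equals the highest concentration tested. Otherwise, values were interpolated linearly from a five-concentration, 48-hour dose response in 96-well plates. At the GI50, growth is halved.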 Activity calls are given as the source filed them. Rule as the data show it: active = GI50 up to about 1.1 µM and inactive = higher.

Test systems include DU-145; TK-10; OVCAR-3; MCF7; SR; HL-60; SN12C; PC-3; OVCAR-4; BT-549; CCRF-CEM; SK-OV-3; SF-268; IGROV-1; 786-0; A549; ACHN; SF-295; HCT-116; SNB-19.
What all share (assay): NCI tumour cell line growth inhibition, 48 h

`CC[C@H](C)c1occ2c(O)c(C(=O)O)c(=O)cc-2c1C`: the GI50 was 34.9 µM (inactive) in the assay with DU-145; 40.8 µM (inactive) in the assay with TK-10; 19.5 µM (inactive) in the assay with OVCAR-3; 29.2 µM (inactive) in the assay on MCF7; 21.9 µM (inactive) with SR; 12.7 µM (inactive) in the assay with HL-60. For the same compound, the GI50 in the assay on SN12C is 22.5 µM (inactive); with PC-3 it was 33.5 µM (inactive); with OVCAR-4, 24.8 µM (inactive); in the assay on BT-549 it was 25.9 µM (inactive); in the assay with CCRF-CEM, 17.5 µM (inactive); in the assay with SK-OV-3, 26.1 µM (inactive). The GI50 with SF-268 is 33.7 µM (inactive); with IGROV-1 it was 18.6 µM (inactive); in the assay on 786-0, 40.1 µM (inactive); with A549 it was 30 µM (inactive); in the assay with ACHN it was 26.7 µM (inactive); with SF-295, 31.3 µM (inactive). In addition, the values for the GI50 with HCT-116 and in the assay on SNB-19 were 18.8 µM (inactive) and 31.7 µM (inactive), respectively.

For the compound `CCn1c(-c2ccc(F)cc2)nc2c1C(=O)c1ccccc1C2=O`, the GI50 in the assay with DU-145 was > 100 µM (inactive); with TK-10, > 100 µM (inactive); with OVCAR-3 it was 33.8 µM (inactive); with MCF7, > 100 µM (inactive); with SR it was > 100 µM (inactive); with HL-60, > 100 µM (inactive). The GI50 with SN12C is > 100 µM (inactive); with PC-3, > 100 µM (inactive); in the assay on OVCAR-4, > 100 µM (inactive); with BT-549 it was > 100 µM (inactive); in the assay with CCRF-CEM it was > 100 µM (inactive); in the assay with SK-OV-3, 20.7 µM (inactive). The GI50 with SF-268, in the assay on IGROV-1, in the assay on 786-0, in the assay with A549, in the assay with ACHN and in the assay with SF-295 was > 100 µM (inactive) throughout. Further, the GI50 in the assay on HCT-116 and in the assay on SNB-19 was > 100 µM (inactive) each time.

As to `COc1cccc(-c2cc(=O)c3ccc(C)nc3[nH]2)c1`, the GI50 in the assay with DU-145 is 0.0824 µM (active); in the assay with TK-10, > 100 µM (inactive); with OVCAR-3, 0.0219 µM (active); in the assay with MCF7, 0.165 µM (active); in the assay with SR, 0.016 µM (active); with HL-60 it was 0.0212 µM (active). The GI50 is 0.122 µM (active) in the assay with SN12C; 0.0361 µM (active) in the assay on PC-3; 3.78 µM (inactive) with OVCAR-4; 0.299 µM (active) with BT-549; 0.0459 µM (active) in the assay on CCRF-CEM; 0.051 µM (active) in the assay with SK-OV-3. Besides, the GI50 was 0.0671 µM (active) with SF-268; 0.0461 µM (active) with IGROV-1; 0.0491 µM (active) with 786-0; 0.0728 µM (active) with A549; 0.0538 µM (active) with ACHN; 0.0371 µM (active) in the assay on SF-295. For the same compound, the GI50 with HCT-116 is 0.0448 µM (active); with SNB-19, 0.0592 µM (active).

In the case of `CCCCCCCC(CC(=O)NC(CO)C(=O)NC(CO)CC(C)C)OC(=O)CC(CCCCCCC)OC(=O)CC(CCCCCCC)OC1OC(C)C(O)C(OC2OC(C)C(O)C(O)C2O)C1O` (stereo not given), the GI50 is 12.6 µM (inactive) in the assay with DU-145; 16.5 µM (inactive) in the assay on TK-10; 13.9 µM (inactive) in the assay on OVCAR-3; 0.614 µM (active) with MCF7; 3.05 µM (inactive) in the assay on SR; 3.26 µM (inactive) in the assay with HL-60. In addition, the GI50 was 14.5 µM (inactive) in the assay with SN12C; 12.7 µM (inactive) with PC-3; 12.6 µM (inactive) in the assay on OVCAR-4; 14.5 µM (inactive) in the assay on BT-549; 3.37 µM (inactive) with CCRF-CEM; 17.6 µM (inactive) with SK-OV-3. Also, the GI50 in the assay on SF-268 was 8.41 µM (inactive); in the assay with IGROV-1, 12.6 µM (inactive); in the assay with 786-0, 14.3 µM (inactive); with A549 it was 15.8 µM (inactive); with ACHN it was 12.2 µM (inactive); in the assay with SF-295, 14 µM (inactive). Moreover, the GI50 with HCT-116 was 7.53 µM (inactive); with SNB-19 it was 12.2 µM (inactive).

With `Cn1ccnc1Sc1ccc(/C=N/c2ccc3nc(SCC(=O)NC4CCCCC4)sc3c2)cc1[N+](=O)[O-]`, the GI50 is > 100 µM (inactive) in the assay with DU-145; 15.6 µM (inactive) in the assay on TK-10; 91.6 µM (inactive) in the assay with OVCAR-3; > 100 µM (inactive) in the assay on MCF7; > 100 µM (inactive) with SR; > 100 µM (inactive) in the assay on HL-60. The GI50 in the assay with SN12C was > 100 µM (inactive); in the assay on PC-3, > 100 µM (inactive); in the assay with OVCAR-4, > 100 µM (inactive); with BT-549, 14.1 µM (inactive); in the assay with CCRF-CEM it was > 100 µM (inactive); in the assay on SK-OV-3 it was 20.2 µM (inactive). Moreover, the GI50 in the assay with SF-268 is 22.6 µM (inactive); with IGROV-1, 37.1 µM (inactive); in the assay on 786-0, 11.6 µM (inactive); with A549 it was > 100 µM (inactive); in the assay on ACHN, 16.6 µM (inactive); in the assay with SF-295, 13.2 µM (inactive). Moreover, the GI50 is 25.9 µM (inactive) in the assay on HCT-116 and 13.7 µM (inactive) in the assay with SNB-19.

With `CS(=O)(=O)c1nc(-c2cc3c(c(S(C)(=O)=O)n2)CCCC3)cc2c1CCCC2`, the GI50 is > 100 µM (inactive) in the assay on DU-145; > 64.6 µM (inactive) in the assay on TK-10; > 100 µM (inactive) in the assay on OVCAR-3; > 100 µM (inactive) with MCF7; > 100 µM (inactive) in the assay on SR; > 100 µM (inactive) in the assay with HL-60. The GI50 in the assay with SN12C is > 100 µM (inactive); in the assay with PC-3, > 100 µM (inactive); in the assay on OVCAR-4 it was > 100 µM (inactive); in the assay with BT-549 it was > 43.2 µM (inactive); with CCRF-CEM, > 100 µM (inactive); in the assay with SK-OV-3 it was > 35.1 µM (inactive). The GI50 with SF-268 was 11.8 µM (inactive); with IGROV-1, > 21.8 µM (inactive); in the assay on 786-0, 41 µM (inactive); with A549, > 100 µM (inactive); with ACHN it was > 100 µM (inactive); with SF-295 it was 33.6 µM (inactive). Besides, the values for the GI50 in the assay with HCT-116 and in the assay with SNB-19 were > 100 µM (inactive) and > 55.7 µM (inactive), respectively.

For `Cc1c2ccccc2c(C2C3C(=O)N(c4cccc5ccccc45)C(=O)C3ON2Cc2ccc(CC(N)=O)cc2)c2ccccc12` (stereo not given), the GI50 is 18.9 µM (inactive) in the assay with DU-145; 16.7 µM (inactive) in the assay on TK-10; 18.8 µM (inactive) in the assay with OVCAR-3; 14.8 µM (inactive) in the assay with MCF7; 14 µM (inactive) in the assay on SR; 16.1 µM (inactive) in the assay on HL-60. Moreover, the GI50 was 15.3 µM (inactive) in the assay on SN12C; 17.4 µM (inactive) with PC-3; 19 µM (inactive) with OVCAR-4; 30.2 µM (inactive) with BT-549; 14.7 µM (inactive) with CCRF-CEM; 30.8 µM (inactive) with SK-OV-3. Also, the GI50 in the assay with SF-268 is 23.6 µM (inactive); in the assay on IGROV-1, 17.7 µM (inactive); in the assay with 786-0, 24.4 µM (inactive); in the assay with A549 it was 16.3 µM (inactive); with ACHN it was 18.5 µM (inactive); in the assay on SF-295, 16.3 µM (inactive). Also, the GI50 was 18.2 µM (inactive) in the assay on HCT-116 and 19.6 µM (inactive) in the assay on SNB-19.

In the case of `C[C@]12CC[C@H]3[C@@H](CC=C4C[C@@H](N5CCCC5)CC[C@@]43C)[C@@H]1C[C@H](N1CCCCC1)[C@@H]2O`, the GI50 is > 100 µM (inactive) in the assay on DU-145; > 100 µM (inactive) with TK-10; > 100 µM (inactive) in the assay with OVCAR-3; > 100 µM (inactive) in the assay on MCF7; 11.4 µM (inactive) with SR; 28.2 µM (inactive) with HL-60. In addition, the GI50 with SN12C, in the assay with PC-3, in the assay with OVCAR-4, with BT-549, with CCRF-CEM and in the assay with SK-OV-3 was > 100 µM (inactive) each time. In addition, the GI50 in the assay with SF-268 was > 100 µM (inactive); in the assay on IGROV-1 it was > 100 µM (inactive); with 786-0, 91.8 µM (inactive); with A549, > 100 µM (inactive); with ACHN it was > 100 µM (inactive); with SF-295, > 100 µM (inactive). The GI50 with HCT-116 is 91.4 µM (inactive); in the assay with SNB-19, > 100 µM (inactive).
